Data from article PMC12189671, “Antioxidant Activity and Cytotoxicity Evaluation of New Catechol Hydrazinyl-Thiazole Derivatives as Potential Protectors in Retinal Degenerative Processes” (Antioxidants, 2025).

Tests used:
[1] = ABTS radical cation decolorization assay; conditions: 10 min incubation, pH 7.4, λ = 734 nm
Procedure: The ABTS^•+ (2,2′-azinobis-(3-ethylbenzothiazoline-6-sulfonic acid) decolorization assay, based on the method of Re et al., was performed in the concentration range of 1 to 25 µM according to protocols previously reported by our group. The reagent was prepared in a 0.1 M potassium phosphate buffer (pH 7.4) and activated overnight with MnO2 [89]. Prior to use, the stability of the ABTS^•+ reagent was verified by checking its absorbance at λ = 734 nm over one hour, ensuring a consistent absorption of around 0.7. The mixtures were incubated for 10 min in the dark at room temperature. The absorbance of the samples is given by the remaining unreacted reagent radical, and it is inversely proportional to the amount of ABTS^•+ neutralized. The ABTS^•+ scavenging activity of compounds was calculated using Equation (2).(2) ABTS^•^+ scavenging (%)=control absorbance−sample absorbance/control absorbance×100

[2] = Total Antioxidant Capacity (TAC) assay; conditions: molar equivalents of reference compound
Procedure: The results of the evaluation of the electron ability transfer of the tested compound were expressed as molar equivalents of the reference compound per one mol of the tested compound using the formula: % of control activity=sample absorbance/reference absorbance×100 The Total Antioxidant Capacity (TAC) assay operates on the principle of reducing molybdenum (VI) to molybdenum (V) by the antioxidants being assessed, resulting in the formation of a blue-green complex. This assay was performed following the methodology detailed in our previous publication, which was based on initial reports from the literature. […] These were then incubated in a water bath at 95 °C for 90 min. After cooling to room temperature, 1 mL of each solution was diluted with 1 mL of water. The absorbance of the solutions was subsequently measured at λ = 695 nm.

[3] = Reducing Power (RP) assay; conditions: molar equivalents of reference compound
Source text: The results of the evaluation of the electron ability transfer of the tested compound were expressed as molar equivalents of the reference compound per one mol of the tested compound using the formula: % of control activity=sample absorbance/reference absorbance×100 In the Reducing Power (RP) assay, the tested compounds reduce ferric ions from potassium ferricyanide, forming ferrocyanide, which produces a blue complex. The protocol used is an adaptation of previously reported methodologies. […] The tubes were sealed and incubated for 20 min in a water bath at 50 °C. […] Subsequently, 250 µL of the resulting solutions were mixed with 140 µL of FeCl3 solution (0.1% w/v) and 1000 µL of distilled water, and the absorbance of the resulting solutions was measured at λ = 695 nm.

[4] = Ferrous ions chelation assay (ferrozine)
Procedure: Solutions of the tested compounds or ethylenediaminetetraacetic acid disodium salt (EDTA-Na2), used as a positive control, were thoroughly mixed with 0.5 mL of FeSO4 (0.125 mM) and 0.5 mL of ferrozine (0.315 mM). After a 10-min incubation in the dark at room temperature, the absorbance was measured at λ = 562 nm.

[5] = Cell viability (resazurin) on BJ; type: cell-based; conditions: human, BJ cells; for IC50 at 24 h: read-out: 24 h Exposure IC50 (cytotoxicity); for IC50 at 48 h: read-out: 48 h Exposure IC50 (cytotoxicity)
Source text: (§1) The ARPE-19 cell line was purchased from CLS Cell Lines Service GmbH (Eppelheim, Germany) and cultured in Dulbecco’s modified Eagle’s medium/F-12 (HAM) 1:1 (Biological Industries, Beit, Israel). The medium was supplemented with 10% fetal bovine serum (FBS) (Thermo Fisher Scientific, Waltham, MA, USA) and 1% penicillin-streptomycin (Biosera, Cholet, France). The cancerous cell line A549 was purchased from ATCC (Manassas, VA, USA) and cultivated in high-glucose Dulbecco’s modified Eagle’s medium (DMEM 4.5 g/L). The normal BJ cell line was also purchased from ATCC (Manassas, VA, USA) and was cultivated in low-glucose Dulbecco’s modified Eagle’s medium (DMEM 1 g/L). The media was supplemented in both cases with 10% FBS. Cells were cultured in T75 flasks and incubated at 37 °C in a humidified incubator with 5% CO2 supplementation. For maintenance, the media was changed every 2–3 days, and when the confluence of the flask reached approximately 85%, the cells were either subcultured or further used in the experiments.
(§2) ARPE-19 cells were seeded at a density of 2 × 10^4 cells/well and 1 × 10^4 cells/well (suspended in 100 µL) in 96-well plates for 24 h and 48 h, respectively. For the BJ cells, the seeding density was 0.5 × 10^4 cells/well and 0.3 × 10^4 cells/well for 24 h and 48 h, respectively, and for the A549 cells, 1.5 × 10^4 cells/well for 24 h and 0.75 × 10^4 cells/well for 48 h. As cells have different sizes and volumes, the different seeding densities were selected to reach a confluency of 80–90% by the end of the experiments. Cells were further exposed to the synthesized compounds for 24/48 h at concentrations ranging from 12.5 to 500 µM. After the incubation period, the exposure media was removed, the cells were washed with PBS, and further incubated with a 200 µM resazurin solution for 3 h as described in our previous report. The conversion of resazurin to the fluorescent resorufin compound by viable cells was measured at λexcitation = 550; λemission = 600, using SpectraMax iD3 (Molecular Devices, San Jose, CA, USA). The experiments were conducted in biological triplicate, each with a minimum of 3 technical replicates. The measured viability was expressed as relative values to the control (cells exposed only to the vehicle–culture medium containing 0.4% DMSO).

[6] = Cell viability (resazurin) on A549; type: cell-based; conditions: human, A549 cells; for IC50 at 24 h: A549, 24 h, read-out: 24 h Exposure IC50 (cytotoxicity); for IC50 at 48 h: A549, 48 h, read-out: 48 h Exposure IC50 (cytotoxicity)
Source text: as §1, §2

| Compound | IC50 [1] [µM] | TAC Eq Ascorbic Acid [2] [Eq Ascorbic Acid] | RP Eq Ascorbic Acid [3] [Eq Ascorbic Acid] | RP Eq Trolox [3] [Eq Trolox] | % of ferrous ions chelation ([4]; 50 nM) | % of ferrous ions chelation ([4]; 100 nM) | % of ferrous ions chelation ([4]; 150 nM) | % of ferrous ions chelation ([4]; 175 nM) | % of ferrous ions chelation ([4]; 200 nM) | IC50 at 24 h [5] [µM] | IC50 at 48 h [5] [µM] | IC50 at 24 h [6] [µM] | IC50 at 48 h [6] [µM] |
| --- | --- | --- | --- | --- | --- | --- | --- | --- | --- | --- | --- | --- | --- |
| C/C=C/C=N/Nc1nc(-c2ccc(O)c(O)c2)cs1.Cl [Compound 5a, 4-(2-(2-((1E,2E)-but-2-en-1-ylidene)hydrazineyl)thiazol-4-yl)benzene-1,2-diol hydrochloride] | 4.67 | 2.82 | 2.55 | 2.12 | − (less than 5% chelation activity) | − (less than 5% chelation activity) | − (less than 5% chelation activity) | − (less than 5% chelation activity) | − (less than 5% chelation activity) | 144 | 162 | 147 | 109 |
| CC1=C(/C=C/C(C)=N/Nc2nc(-c3ccc(O)c(O)c3)cs2)C(C)(C)CCC1.Cl [Compound 5b, 4-(2-(2-((2E,3E)-4-(2,6,6-trimethylcyclohex-1-en-1-yl)but-3-en-2-ylidene) hydrazineyl)thiazol-4-yl)benzene-1,2-diol hydrochloride] | 5.03 | 2.56 | 1.90 | 1.58 | − (less than 5% chelation activity) | − (less than 5% chelation activity) | − (less than 5% chelation activity) | − (less than 5% chelation activity) | − (less than 5% chelation activity) | 141 | 152 | 167 | 39.6 |
